# Source: patent publication US20020086835A1, “Use of adenosine deaminase inhibitors to treat systemic inflammatory response syndrome” (priority 2000, published 2002)
# Where “and” joins values, the source holds several entries; their conditions need not be identical. Equal entries are not always repeated. Entries after “also recorded” stand apart in the source; their conditions may differ.
# Columns and labels:
# TNF-α = assay: Serum TNF-α by ELISA in rats with chronic peritoneal sepsis (200 mg/kg cecal slurry ip); assay type: in vivo, rat; settings: septic rats
# Experimental: (§1) Studies were conducted to determine if manipulation of adenosine-mediated events would result in alterations in the TNF-α response in this model. At the time of sepsis induction, rats were treated in one of four ways. One group received only 0.9% normal saline as a vehicle control (No Rx; n=6). […] The third group received the adenosine deaminase inhibitor, erythro-9-(2-hydroxy-3-nonyl)adenine (EHNA; 1 μmole/kg+1 μmole/kg/hr; iv; n=3). A fourth group received the adenosine receptor antagonist 8-sulfophenyltheophylline (SPT; 400 μg/kg/8 hours; n=5).
# (§2) Sepsis was induced under pentobarbital anesthesia (50 mg/kg) in each rat by intraperitoneal (ip) injection of 200 mg/kg rat cecal contents mixed as a slurry in 5% dextrose in water (D5W). […] Non-septic controls received an equivalent volume ip injection of D5W. Polyethylene catheters (Intramedic PE-50, Baxter) were inserted into the right internal jugular vein and right carotid artery. The jugular catheter was used for venous access (drug infusions; volume replacement, etc). The carotid catheter was used to obtain arterial blood samples, and to monitor arterial blood pressure and heart rate. The catheters were secured in their respective vessels, tunneled subcutaneously to exit in the interscapular region, and filled with heparinized saline (50 units/ml 0.9% normal saline). Incisions were closed in layers using 3-0 silk. Rats were allowed to recover from anesthetic and provided food and water ad libitum,
# Serum and tissue tumor necrosis factor-α (TNF-α) concentrations were determined by enzyme-linked immunosorbant assay. Samples of serum, liver, and spleen were collected, rapidly weighed, and frozen in liquid nitrogen. On the day of assay, tissues are added to labeled tubes containing lysis buffer (volume=10 ml/gram wt. with 1:10 dilution) and kept on ice. The lysis buffer is 20 mM Tris (pH 7.4) containing […] phenylmethylsulfonylflouride (PMSF), […] leupeptin, 0.7 g/ml pepstatin, and 2.0 g/ml aprotinin to inhibit proteases. Samples were immediately homogenized using five 3 see bursts, washing grinding pistol (3×) between samples with phosphate buffered saline. Samples are then centrifuged for 20 min at 2200 RPM, 4° C. The supernatant was removed and used for TNF-α measurements. Briefly, each microplate well contained 50 μl of assay diluent. To each well, 50 μl of standard, control, or serum/homogenate supernatant sample were added and mixed on an orbital plate shaker. Plates were incubated at room temperature for 2 hours. Each well was then aspirated and washed with wash buffer 4 times. After final aspiration of wash buffer, 100 μl of rat TNF-α conjugate was added to each well. Wells were then covered and incubated for 2 hours at room temperature. At the end of the incubation, the aspiration/wash procedure was repeated 4 times, after which 100 μl of stabilized chromogen solution was added to each well. Next, plates were incubated for 45 minutes at room temperature in a dark area. After this final incubation period, 100 μl stopping solution was added to each well. Optical density of each well at […] was determined within 30 minutes using a Biotek Instruments EL312e microtiter plate reader. Concentrations of TNF-α were calculated from the standard curves.
# At the time of sepsis induction, rats were treated in one of three ways. One group received only 0.9% normal saline as a vehicle control (VEH, n=6, where n is the number of rats). […] A third group received the adenosine receptor antagonist, 8-sulfophenyltheo-phylline (SPT; 400 μg/kg/8 h; n=5). Serum TNF-α (pg/ml) was determined at 4 and 24 hours after sepsis induction by ELISA.
# Male SD rats (350-400 g) were made septic by IP introduction of a 200 mg/kg cecal slurry. […] TNF-α (pg/ml) was determined at 4 and 24 hours after sepsis induction by ELISA.
# septic rats [1] = assay: Survival of septic rats to day 3; assay type: in vivo, rat; settings: pentostatin 5 mg/kg/12 h; 8-SPT 400 μg/kg/8 h; 3 days post-sepsis
# Experimental: as §1
# as §2, with “The catheters were secured in their respective vessels, tunneled subcutaneously to exit in the interscapular region, and filled with heparinized saline (50 units/ml 0.9% normal saline). Incisions were closed in layers using 3-0 silk. Rats were allowed to recover from anesthetic and provided food and water ad libitum,” left out
# (§3) At the time of sepsis induction, rats were treated in one of three ways. […] Serum TNF-α (pg/ml) was determined at 4 and 24 hours after sepsis induction by ELISA.
# septic rats [2] = assay: Blood pressure and heart rate in septic rats; settings: chronic treatment
# Experimental: as §1
# as §2, with “The catheters were secured in their respective vessels, tunneled subcutaneously to exit in the interscapular region, and filled with heparinized saline (50 units/ml 0.9% normal saline). Incisions were closed in layers using 3-0 silk. Rats were allowed to recover from anesthetic and provided food and water ad libitum,” left out
# as §3
# adenosine receptors = assay: Regional vascular resistance by radiolabelled microspheres 24 hours after sepsis induction; assay type: in vivo, rat; settings: septic rats
# Experimental: Systemic vascular responses were examined 24 hours after induction of sepsis in the presence or absence of adenosine receptor blockade in septic and non-septic rats using radiolabelled microspheres. For these experiments, the surgical procedure involving vascular access was modified to include a catheter in the left ventricle of the heart (via the carotid artery), and a catheter in the tail artery (Intramedic PE-50, Baxter) to permit reference blood withdrawal and blood pressure monitoring. Regional blood flows were determined using radiolabelled microspheres. The microspheres ([…] New England Nuclear, Boston), labeled with one of four isotopes (^46Sc, ^85Sr, ^95Nb, ^141Ce), were mixed in 0.9% normal saline with 0.01 % Tween-80 added to prevent aggregation. The microspheres were adjusted to provide a minimum of 400 microspheres per tissue sample, and represented approximately 100,000-250,000 spheres per injection. The specific Isotopes and their order of injection were randomized in each experiment. with each injection representing a volume of 0.4 ml/injectate. The microspheres were sonicated for a minimum of 30 minutes, and vortexed vigorously for at least 30 seconds prior to injection. A reference withdrawal sample was taken at 0.33 ml/min from the tail artery catheter using a mechanical pump (Harvard Model 22). The reference withdrawal was started 10 seconds prior to injecting the isotopes, and continued for 150 seconds. […] Wet weights were obtained and all tissues were counted in a gamma spectrophotometer (Beckman 9000). Gamma activity in the injectate vials was counted prior to the experiments. Actual injected amounts for each isotope were calculated by subtracting any isotope counts remaining in the vials, syringes, and catheters used for injection. Cardiac output (CO) was determined by dividing the total injectate counts for any given isotope by the counts in the reference sample and multiplying by the fixed withdrawal rate of the reference sample. The results for cardiac output are expressed as ml/min. Tissue counts attributed to each isotope were determined after subtracting the overlap of energy spectra from higher energy isotopes (Compton back-scatter). Individual tissue blood flows were determined by dividing the counts obtained in the tissue by the reference withdrawal counts and multiplying by the reference withdrawal rate. Tissue blood flows were then normalized to wet weight was calculated by adding the individual tissue blood flows of the stomach, small intestine, cecum, colon, pancreas, hepatic artery and spleen, and dividing by the liver weight. Regional tissue vascular resistances were calculated from regional blood flows and arterial blood pressure, according to the equation: […]
# septic rats [3] = assay: Capillary leakage: examination of peritoneal cavity and bowel of septic rats; assay type: in vivo, rat
# xanthine oxidase = molecular target: T1, xanthine oxidase (Rattus norvegicus, UniProt P22985); settings: 10 nM, hypoxic perfused rat hearts; cited from earlier work
# T1 construct: host or cells: isolated perfused rat heart
# adenosine deaminase = molecular target: T2, adenosine deaminase (Homo sapiens, UniProt P00813); settings: FIG. 10 legend; cited from earlier work
# T2 sequence (P00813 1-363): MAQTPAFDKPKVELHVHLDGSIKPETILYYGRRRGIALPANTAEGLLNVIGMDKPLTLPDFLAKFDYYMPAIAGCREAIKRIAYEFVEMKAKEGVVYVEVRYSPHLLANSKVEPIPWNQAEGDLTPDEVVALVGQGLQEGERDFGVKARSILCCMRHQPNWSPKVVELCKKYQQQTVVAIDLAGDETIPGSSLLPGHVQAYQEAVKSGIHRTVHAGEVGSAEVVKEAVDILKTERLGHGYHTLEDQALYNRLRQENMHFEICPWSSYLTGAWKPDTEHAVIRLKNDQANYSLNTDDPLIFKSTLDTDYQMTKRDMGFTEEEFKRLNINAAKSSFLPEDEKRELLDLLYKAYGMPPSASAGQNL
# T1 sequence (P22985 whole entry, the tested form may be a part): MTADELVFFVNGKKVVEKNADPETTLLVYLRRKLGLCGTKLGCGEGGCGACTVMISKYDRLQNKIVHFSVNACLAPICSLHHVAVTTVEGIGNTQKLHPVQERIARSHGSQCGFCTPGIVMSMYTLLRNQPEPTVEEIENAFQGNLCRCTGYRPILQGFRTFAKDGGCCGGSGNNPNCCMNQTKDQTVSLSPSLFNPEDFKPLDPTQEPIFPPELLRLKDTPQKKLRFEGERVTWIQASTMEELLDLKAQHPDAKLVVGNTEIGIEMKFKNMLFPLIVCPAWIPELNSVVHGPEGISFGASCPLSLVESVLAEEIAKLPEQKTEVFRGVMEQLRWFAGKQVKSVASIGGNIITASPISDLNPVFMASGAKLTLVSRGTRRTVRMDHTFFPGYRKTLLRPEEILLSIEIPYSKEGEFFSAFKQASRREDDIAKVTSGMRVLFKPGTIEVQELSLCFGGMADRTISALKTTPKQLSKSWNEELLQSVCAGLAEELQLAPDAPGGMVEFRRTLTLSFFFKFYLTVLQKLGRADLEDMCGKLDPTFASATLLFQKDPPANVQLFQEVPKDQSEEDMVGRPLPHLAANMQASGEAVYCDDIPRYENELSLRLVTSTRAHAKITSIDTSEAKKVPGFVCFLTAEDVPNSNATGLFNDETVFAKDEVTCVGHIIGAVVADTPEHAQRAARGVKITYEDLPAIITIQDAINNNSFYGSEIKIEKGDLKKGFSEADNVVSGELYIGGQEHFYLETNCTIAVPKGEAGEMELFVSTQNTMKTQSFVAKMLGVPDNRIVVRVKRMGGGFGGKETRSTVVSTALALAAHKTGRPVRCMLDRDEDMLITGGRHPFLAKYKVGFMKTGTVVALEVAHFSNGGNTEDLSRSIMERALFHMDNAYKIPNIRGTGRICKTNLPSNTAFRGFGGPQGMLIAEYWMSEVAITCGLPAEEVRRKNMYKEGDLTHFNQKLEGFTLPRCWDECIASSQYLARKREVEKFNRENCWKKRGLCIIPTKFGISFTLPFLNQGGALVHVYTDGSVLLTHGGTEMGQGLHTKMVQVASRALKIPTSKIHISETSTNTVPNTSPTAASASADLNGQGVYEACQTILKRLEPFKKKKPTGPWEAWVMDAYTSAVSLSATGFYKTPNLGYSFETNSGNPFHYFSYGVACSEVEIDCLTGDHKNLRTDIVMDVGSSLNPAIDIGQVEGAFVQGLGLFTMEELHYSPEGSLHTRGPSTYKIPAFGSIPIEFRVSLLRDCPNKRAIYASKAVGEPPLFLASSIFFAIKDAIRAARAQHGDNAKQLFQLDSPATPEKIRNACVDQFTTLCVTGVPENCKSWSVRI
compound,measurement,setting,value
8-sulfophenyltheophylline [8-SPT],Effect on serum TNF-α response to sepsis at 4 hours,"TNF-α; 4 hours, versus saline-treated septic group",not at 4 hours
same,Effect on serum TNF-α response to sepsis at 24 hours,"TNF-α; 24 hours, versus saline-treated septic group",amplified the response
same,Serum TNF-α at 4 hours after sepsis induction,"TNF-α; treated at time of sepsis induction, 4 hours",1167 ± 428 pg/mL
same,Serum TNF-α at 24 hours after sepsis induction,"TNF-α; treated at time of sepsis induction, 24 hours",2479 ± 875 pg/mL
same,Septic rats surviving to day 3,septic rats [1],2 of the 5 and 1 of 5
same,Blood pressures or heart rates versus saline-treated septic rats,septic rats [2],neither the adenosine deaminase inhibition nor the 8-SPT groups were blood pressures or heart rates significantly different; also recorded: neither the groups treated with pentostatin nor the groups treated with 8-SPT were blood pressures or heart rates significantly different
same,Brain (cerebral) vascular resistance,adenosine receptors,exception of changes in cerebral vascular resistance
same,Capillary leakage,septic rats [3],exacerbation of capillary leakage
same,Small bowel hemorrhage,septic rats [3],small bowel hemorrhaging was evident
same,Volume of fluid in the peritoneal cavity,septic rats [3]; untreated 2-3 ml,3 to 5 mL
Oc1ncnc2[nH]ncc12 [Allopurinol],Uric acid production,xanthine oxidase,below detectable levels
OCC1OC(n2cnc3c2N=CNCC3O)C(F)C1O (stereo not drawn) [2′-deoxy-2′-fluorocoformycin],Enzyme-inhibitory activity against adenosine deaminase,adenosine deaminase,high enzyme-inhibitory activities
